Results: patent US8835617B2, “Polynucleotides encoding a human TRIM-Cyp fusion polypeptide, compositions thereof, and methods of using same” (priority 2008, dated 2014)

What was measured:
CypA-CA interaction = conditions: CsA 2.5 μM, CRFK; DEBIO-025 in Jurkat
Description: All chemicals were obtained from Sigma unless otherwise noted. Puromycin was used at 1 μM. […] Arsenic trioxide (As2O3) was made at 100 mM in 1N sodium hydroxide (NaOH) and then further diluted to 1 mM in phosphate buffered saline (PBS). pH was adjusted to 7.5 with hydrochloric acid and stored at 4° C.

T5-mediated restriction = test: Disruption of T5Cyp-mediated HIV-1 restriction by arsenic trioxide in CRFK cells; type: cell-based; conditions: increasing amounts
Description: This drug was previously shown to inhibit T5-mediated restriction (Sebastian et al., 2006).
Puromycin was used at 1 μM.

## C/C=C/C[C@@H](C)[C@@H](O)[C@H]1C(=O)N[C@@H](CC)C(=O)N(C)[C@H](C)C(=O)N(CC)[C@@H](C(C)C)C(=O)N[C@@H](C(C)C)C(=O)N(C)[C@@H](CC(C)C)C(=O)N[C@@H](C)C(=O)N[C@H](C)C(=O)N(C)[C@@H](CC(C)C)C(=O)N(C)[C@@H](CC(C)C)C(=O)N(C)[C@@H](C(C)C)C(=O)N1C [DEBIO-025]
CypA-CA interaction
  effect on HIV-1 restriction by AoT5Cyp and hT5Cyp: Equivalent results

## arsenic trioxide [As2O3]
T5-mediated restriction
  effect on AoT5Cyp and hT5Cyp restriction activity: blocked to the same extent
